Results: US20220009920A1 (GB005, Inc., priority 2020, published 2022)

What was measured:
Test in all cases: Large panel kinase profiling
Assay type in all cases: biochemical
Conditions in all cases: 1 μM test article, 1 mM ATP
IRAK4 = target: T1, IRAK4 (Homo sapiens, UniProt Q9NWZ3)
T1 sequence (Q9NWZ3 1-460): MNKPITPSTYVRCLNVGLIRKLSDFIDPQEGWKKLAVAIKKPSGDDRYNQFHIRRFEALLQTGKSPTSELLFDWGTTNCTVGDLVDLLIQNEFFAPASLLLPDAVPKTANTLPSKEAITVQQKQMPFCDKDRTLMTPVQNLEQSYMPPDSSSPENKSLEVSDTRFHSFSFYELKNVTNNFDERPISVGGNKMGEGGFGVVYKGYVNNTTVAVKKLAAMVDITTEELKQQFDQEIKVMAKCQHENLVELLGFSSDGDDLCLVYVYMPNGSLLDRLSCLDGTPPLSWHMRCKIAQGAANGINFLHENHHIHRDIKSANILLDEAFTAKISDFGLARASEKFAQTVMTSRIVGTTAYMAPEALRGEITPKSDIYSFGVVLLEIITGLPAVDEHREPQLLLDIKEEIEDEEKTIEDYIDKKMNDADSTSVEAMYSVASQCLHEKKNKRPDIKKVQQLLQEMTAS
Procedure, shortened: (§1)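 Profiling across the panel relied on the PhosphoSens CSox-Sensor format. A compound concentration of 1 μM and an ATP level of 1 mM were used throughout.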

MAP4K1/HPK1 = target: T2, MAP4K1/HPK1 (Homo sapiens, UniProt Q92918)
T2 construct: AssayQuant Technologies, Inc. (service provider)
T2 sequence (Q92918 whole entry): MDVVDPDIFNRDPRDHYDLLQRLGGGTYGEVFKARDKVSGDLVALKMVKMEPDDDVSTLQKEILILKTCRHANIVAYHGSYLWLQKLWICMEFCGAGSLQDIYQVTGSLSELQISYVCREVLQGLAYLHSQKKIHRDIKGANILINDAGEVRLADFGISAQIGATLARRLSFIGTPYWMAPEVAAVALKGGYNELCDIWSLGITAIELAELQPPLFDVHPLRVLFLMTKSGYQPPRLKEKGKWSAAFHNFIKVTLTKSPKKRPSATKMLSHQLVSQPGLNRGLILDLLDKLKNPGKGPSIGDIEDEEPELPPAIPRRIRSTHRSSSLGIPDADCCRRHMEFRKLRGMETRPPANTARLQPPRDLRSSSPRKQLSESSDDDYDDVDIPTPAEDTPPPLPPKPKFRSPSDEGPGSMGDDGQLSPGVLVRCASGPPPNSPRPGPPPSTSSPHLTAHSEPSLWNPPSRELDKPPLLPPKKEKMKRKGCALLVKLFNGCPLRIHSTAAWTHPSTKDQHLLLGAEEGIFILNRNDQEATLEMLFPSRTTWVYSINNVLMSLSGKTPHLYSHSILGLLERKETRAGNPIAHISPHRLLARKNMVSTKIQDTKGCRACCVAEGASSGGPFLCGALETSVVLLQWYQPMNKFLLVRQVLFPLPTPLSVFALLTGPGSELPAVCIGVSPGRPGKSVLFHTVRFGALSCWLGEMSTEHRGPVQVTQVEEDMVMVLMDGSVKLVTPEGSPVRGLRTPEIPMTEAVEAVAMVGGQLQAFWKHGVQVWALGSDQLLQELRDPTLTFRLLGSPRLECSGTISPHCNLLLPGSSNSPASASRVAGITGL
Procedure, shortened: as §1

MERTK/MER = target: T3, MERTK/MER (Homo sapiens, UniProt Q12866)
T3 construct: AssayQuant Technologies, Inc. (assay service)
T3 sequence (Q12866 21-999): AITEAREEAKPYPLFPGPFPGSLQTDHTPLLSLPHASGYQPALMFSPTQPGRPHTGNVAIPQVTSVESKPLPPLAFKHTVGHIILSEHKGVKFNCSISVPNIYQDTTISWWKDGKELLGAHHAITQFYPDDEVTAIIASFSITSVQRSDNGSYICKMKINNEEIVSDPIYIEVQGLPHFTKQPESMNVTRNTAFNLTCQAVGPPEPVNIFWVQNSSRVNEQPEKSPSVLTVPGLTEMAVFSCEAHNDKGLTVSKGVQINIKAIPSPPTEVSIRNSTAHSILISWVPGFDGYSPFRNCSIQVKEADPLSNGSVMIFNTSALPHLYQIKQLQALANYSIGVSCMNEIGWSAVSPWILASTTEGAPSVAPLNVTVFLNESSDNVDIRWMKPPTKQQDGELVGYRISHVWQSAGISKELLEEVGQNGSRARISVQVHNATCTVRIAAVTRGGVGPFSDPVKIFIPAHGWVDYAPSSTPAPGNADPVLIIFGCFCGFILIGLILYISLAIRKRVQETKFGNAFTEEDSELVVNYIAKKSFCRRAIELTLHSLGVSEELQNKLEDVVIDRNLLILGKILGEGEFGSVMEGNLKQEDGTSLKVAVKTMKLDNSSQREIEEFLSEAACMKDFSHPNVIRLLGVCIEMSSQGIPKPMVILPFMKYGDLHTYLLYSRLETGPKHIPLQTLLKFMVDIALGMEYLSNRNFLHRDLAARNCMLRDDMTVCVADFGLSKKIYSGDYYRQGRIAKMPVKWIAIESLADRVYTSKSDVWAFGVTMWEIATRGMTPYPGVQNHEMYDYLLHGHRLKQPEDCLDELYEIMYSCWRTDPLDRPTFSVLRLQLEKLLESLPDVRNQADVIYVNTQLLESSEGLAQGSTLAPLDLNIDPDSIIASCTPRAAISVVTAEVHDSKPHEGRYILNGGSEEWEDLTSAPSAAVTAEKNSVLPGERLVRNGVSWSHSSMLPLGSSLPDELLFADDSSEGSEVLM
Procedure, shortened: as §1

PHKG2 = target: T4, PHKG2 (Homo sapiens, UniProt P15735)
T4 sequence (P15735 1-406): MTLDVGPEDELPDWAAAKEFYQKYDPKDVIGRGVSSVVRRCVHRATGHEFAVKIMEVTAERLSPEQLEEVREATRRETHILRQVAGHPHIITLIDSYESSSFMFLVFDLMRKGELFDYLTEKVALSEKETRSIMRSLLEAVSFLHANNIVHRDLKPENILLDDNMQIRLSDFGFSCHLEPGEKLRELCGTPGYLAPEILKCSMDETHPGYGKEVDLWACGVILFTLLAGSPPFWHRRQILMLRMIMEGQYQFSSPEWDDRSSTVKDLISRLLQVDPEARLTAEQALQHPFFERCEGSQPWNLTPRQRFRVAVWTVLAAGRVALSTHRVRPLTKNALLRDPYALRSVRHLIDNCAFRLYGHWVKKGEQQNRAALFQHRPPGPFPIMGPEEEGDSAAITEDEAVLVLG
Procedure, shortened: as §1

PRKCQ/PKCQ = PRKCQ/PKCQ (Homo sapiens, UniProt Q04759)
PRKCQ/PKCQ, sequence (Q04759 whole entry): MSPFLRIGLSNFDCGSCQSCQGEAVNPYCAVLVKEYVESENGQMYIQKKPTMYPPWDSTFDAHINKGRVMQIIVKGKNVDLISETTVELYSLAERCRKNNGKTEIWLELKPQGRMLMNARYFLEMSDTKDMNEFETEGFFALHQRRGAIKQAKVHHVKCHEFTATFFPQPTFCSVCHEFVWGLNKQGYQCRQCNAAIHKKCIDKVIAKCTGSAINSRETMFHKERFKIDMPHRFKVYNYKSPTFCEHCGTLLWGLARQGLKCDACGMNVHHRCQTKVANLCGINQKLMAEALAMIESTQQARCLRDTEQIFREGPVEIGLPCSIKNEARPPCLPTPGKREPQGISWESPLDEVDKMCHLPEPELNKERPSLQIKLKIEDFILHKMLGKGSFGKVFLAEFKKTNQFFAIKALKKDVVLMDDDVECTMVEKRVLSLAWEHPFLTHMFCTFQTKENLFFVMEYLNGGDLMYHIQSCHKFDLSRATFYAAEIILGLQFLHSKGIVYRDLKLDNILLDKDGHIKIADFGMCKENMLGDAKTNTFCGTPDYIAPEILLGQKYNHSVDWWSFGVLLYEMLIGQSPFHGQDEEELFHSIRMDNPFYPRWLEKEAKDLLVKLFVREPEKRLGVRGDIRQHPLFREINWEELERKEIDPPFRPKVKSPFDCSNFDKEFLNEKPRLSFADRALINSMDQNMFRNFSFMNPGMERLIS
Procedure, shortened: as §1

RPS6KA1/RSK1 = RPS6KA1/RSK1 (Homo sapiens, UniProt Q15418)
RPS6KA1/RSK1, sequence (Q15418 whole entry): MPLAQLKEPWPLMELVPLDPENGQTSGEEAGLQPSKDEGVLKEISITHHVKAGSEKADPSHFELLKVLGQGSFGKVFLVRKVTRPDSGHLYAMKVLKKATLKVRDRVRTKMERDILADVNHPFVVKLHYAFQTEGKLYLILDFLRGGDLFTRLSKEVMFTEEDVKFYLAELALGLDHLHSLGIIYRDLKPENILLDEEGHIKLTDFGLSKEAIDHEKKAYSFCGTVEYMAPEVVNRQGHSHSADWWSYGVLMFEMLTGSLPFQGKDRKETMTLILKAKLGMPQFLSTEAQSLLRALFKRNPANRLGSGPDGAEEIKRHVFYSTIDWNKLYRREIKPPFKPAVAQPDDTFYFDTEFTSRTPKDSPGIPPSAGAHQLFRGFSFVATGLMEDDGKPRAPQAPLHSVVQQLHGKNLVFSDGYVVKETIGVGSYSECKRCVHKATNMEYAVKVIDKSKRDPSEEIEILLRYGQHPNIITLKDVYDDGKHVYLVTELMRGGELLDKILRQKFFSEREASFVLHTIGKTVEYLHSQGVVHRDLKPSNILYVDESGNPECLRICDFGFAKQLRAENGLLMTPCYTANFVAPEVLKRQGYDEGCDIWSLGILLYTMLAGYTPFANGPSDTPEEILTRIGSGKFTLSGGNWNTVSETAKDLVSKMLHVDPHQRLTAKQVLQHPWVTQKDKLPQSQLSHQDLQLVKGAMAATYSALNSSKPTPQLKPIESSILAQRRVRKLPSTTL
Procedure, shortened: as §1

SRPK2 = target: T5, SRPK2 (Homo sapiens, UniProt P78362)
T5 construct: AssayQuant Technologies, Inc. (contract assay)
T5 sequence (P78362 whole entry, species assumed): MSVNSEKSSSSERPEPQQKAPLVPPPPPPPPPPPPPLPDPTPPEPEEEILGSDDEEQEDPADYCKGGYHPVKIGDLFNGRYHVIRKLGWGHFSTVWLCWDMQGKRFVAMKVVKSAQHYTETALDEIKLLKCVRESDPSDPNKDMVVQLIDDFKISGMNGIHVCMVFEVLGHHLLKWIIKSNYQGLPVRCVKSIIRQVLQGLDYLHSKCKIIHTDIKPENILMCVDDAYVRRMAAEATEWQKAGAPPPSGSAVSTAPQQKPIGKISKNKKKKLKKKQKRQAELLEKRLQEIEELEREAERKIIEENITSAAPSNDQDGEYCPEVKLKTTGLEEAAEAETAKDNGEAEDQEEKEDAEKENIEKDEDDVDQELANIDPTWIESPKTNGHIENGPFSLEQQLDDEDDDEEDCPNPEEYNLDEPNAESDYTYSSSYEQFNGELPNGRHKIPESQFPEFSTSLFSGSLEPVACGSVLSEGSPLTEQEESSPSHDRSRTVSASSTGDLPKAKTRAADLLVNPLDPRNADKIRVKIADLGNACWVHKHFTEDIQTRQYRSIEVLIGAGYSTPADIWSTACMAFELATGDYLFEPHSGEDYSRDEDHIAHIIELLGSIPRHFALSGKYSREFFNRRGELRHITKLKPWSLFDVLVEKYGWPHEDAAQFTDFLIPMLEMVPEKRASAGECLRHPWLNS
Procedure, shortened: as §1

Compound	inhibition at 1 µM (IRAK4)	inhibition at 1 µM (MAP4K1/HPK1)	inhibition at 1 µM (MERTK/MER)	inhibition at 1 µM (PHKG2)	inhibition at 1 µM (PRKCQ/PKCQ)	inhibition at 1 µM (RPS6KA1/RSK1)	inhibition at 1 µM (SRPK2)
C=CC(=O)N1CCCC(c2c(F)cc(C(N)=O)c3[nH]c4c(c23)CCCCC4)C1 (single isomer, unassigned) [Compound 5-6]	-4.7%	-3.2%	-0.8%	10.1%	-3.7%	6.7%	24.9%
C=CC(=O)N1CCC[C@@H](c2c(F)cc(C(N)=O)c3[nH]c4c(c23)CC2(CC4)CC2)C1 [Compound 6-2, (S)-5-(1-acryloylpiperidin-3-yl)-6-fluoro-1,2,4,9-tetrahydrospiro[carbazole-3,1′-cyclopropane]-8-carboxamide]	4.1%	16.3%	12.4%	64.5%	0.7%	-49.1%	-60.6%
C=CC(=O)N1CCC[C@@H](c2c(F)cc(C(N)=O)c3[nH]c4c(c23)CCC4)C1 [Compound 10-2, (S)-8-(1-acryloylpiperidin-3-yl)-7-fluoro-1,2,3,4-tetrahydrocyclo-penta[b]indole-5-carboxamide]	-9.2%	0.8%	14.8%	75%	-72.5%	-29.2%	-29.1%
